# Measured values: PMC7467771, “Lipophilic Arginine Esters: The Gateway to Preservatives without Side Effects” (Molecular Pharmaceutics, 2020)
# System: lipase from porcine pancreas
# Assay: degradation of arginine esters by lipase (pH-stat titration)
# Format: in vitro ADME
# Conditions: within 3 h, 1 mM ester, pH 6.8, 37 °C
# Method: Lipase-catalyzed hydrolytic degradation of Arg-OL and Arg-DT esters was carried out using a previously described experimental setup.[16] Digestion medium consisted of 2 mM Tris buffer with 5 mM CaCl2 and 150 mM NaCl. The medium pH was adjusted to 6.8. Lipase solution was freshly prepared before the experiment as follows: 0.5 g of lipase was mixed for 10 min in 10 mL of digestion medium, followed by centrifugation at 12 000 rpm and 4 °C for 15 min. The supernatant was collected for the degradation test and ice-stored until use. For the degradation test, solutions of Arg-OL and Arg-DT were prepared in the concentration of 1 mM in digestion buffer, and the pH was adjusted to 6.8 using 0.5 M NaOH. Thereafter, 2 mL of lipase solution was added to 18 mL of the Arg-surfactant solution to initiate ester degradation under continuous stirring at 37 °C. The ester hydrolysis was reflected by monitoring the drop in pH due to the release of arginine and titrated to keep the pH at 6.8 with the addition of 0.5 M NaOH. The experiment was continued for 3 h. Back-titration was also performed at the end of the experiment by raising the pH to 9, and additional consumption of the NaOH volume reflected the nonionized form of an amino acid. […]
row,SMILES,percentage of arginine ester cleaved by lipase [%]
1,"CCCCCCCCCCCCC(CCCCCCCCCC)COC(=O)[C@@H](N)CCCNC(=N)N.O=C(O)C(F)(F)F (some centres unmarked) [Arg-DT, 2-Decyltetradecyl Argininate Trifluoroacetate]",85
2,"CCCCCCCCC=CCCCCCCCCOC(=O)[C@@H](N)CCCNC(=N)N.O=C(O)C(F)(F)F [Arg-OL, Octadec-9-en-1-yl Argininate Trifluoroacetate]",93
